These results are taken from patent US9295671B2, “Benzenesulfonamide derivatives of quinoxaline, pharmaceutical compositions thereof, and their use in methods for treating cancer” (NEUPHARMA, INC., priority 2011, dated 2016).

A word on the inhibition: it is the share of the control response that was lost under treatment. One may read the IC50 as the midpoint of a concentration-inhibition curve.

Experiment [1] concerns A375 tumor xenograft. The experiment in a line: Inhibition of tumor growth in A375 tumor xenograft model. In kind it is in vivo, BALB/c female nude mice. Particulars: nude mice, Compound 12.5 mg/kg b.i.d. × 20 i.g., Cisplatin 6 mg/kg q7d × 3 i.p. The procedure: Cells were implanted in BALB/c female nude mice and grown as tumor xenografts. When tumors achieved 120-200 mm^3, mice were assigned into treatment and control groups using randomized block design based upon their tumor volumes. Each group contained 6 tumor-bearing mice. Tumors were measured twice weekly in two dimensions using a caliper, and the tumor volume was calculated from two-dimensional measurements using the equation V=0.5×a×b^2 where a and b are the long and short diameters of the tumor, respectively. Relative tumor volume (RTV) was defined as TVt/TVi, the ratio of the volume on a given day (TVt) and the volume at the start of treatment (TVi). Relative tumor growth rate (T/C) was defined as RTVT/RTVC, the ratio of relative tumor volume of treatment group (RTVT) and relative tumor volume of control group (RTVC) on a given day. Inhibition of tumor growth in a A375 tumor xenograft model is shown below in Table 6 for a compound of Table 1.

Experiment [2] concerns the target T1, BRAF (Homo sapiens, UniProt P15056).
T1 construct: purchased Invitrogen
Description: Z′-LYTE kinase assay, BRAF (Invitrogen). The class given is biochemical. Particulars: Z′-LYTE method. Here is the method: (§1) Inhibitory activities of compounds against BRAF or BRAF V600E were measured by Invitrogen using Z′-LYTE® Method as briefly described in the following.
(§2) 4× Test compounds are dissolved in 1% DMSO. […] ATP solutions are diluted to a 4×ATP working concentration in Kinase Buffer (50 mM HEPES pH 7.5, 0.01% BRIJ-35, 10 mM MgCl2, 1 mM EGTA).
(§3) Reaction starts by 30-second shaking of mixture consisting of 2.5 μL4× test compound, […] and 2.5 μL 4×ATP Solution on Bar-coded Corning, low volume NBS, black 384-well plate (Corning Cat. #3676). Then the mixture is incubated for 60-minute at room temperature for the kinase reaction, followed by addition of 5 μL of a 1:1024 dilution of development reagent A and 30-second plate shake. The mixture is then incubated for another 60-minute at room temperature for development reaction. Finally fluorescence is read by plate reader.

The target in experiment [3] is T2, BRAF V600E (Homo sapiens, UniProt P15056, V600E).
T2 construct: purchased Invitrogen
T2 sequence (P15056 whole entry V600E): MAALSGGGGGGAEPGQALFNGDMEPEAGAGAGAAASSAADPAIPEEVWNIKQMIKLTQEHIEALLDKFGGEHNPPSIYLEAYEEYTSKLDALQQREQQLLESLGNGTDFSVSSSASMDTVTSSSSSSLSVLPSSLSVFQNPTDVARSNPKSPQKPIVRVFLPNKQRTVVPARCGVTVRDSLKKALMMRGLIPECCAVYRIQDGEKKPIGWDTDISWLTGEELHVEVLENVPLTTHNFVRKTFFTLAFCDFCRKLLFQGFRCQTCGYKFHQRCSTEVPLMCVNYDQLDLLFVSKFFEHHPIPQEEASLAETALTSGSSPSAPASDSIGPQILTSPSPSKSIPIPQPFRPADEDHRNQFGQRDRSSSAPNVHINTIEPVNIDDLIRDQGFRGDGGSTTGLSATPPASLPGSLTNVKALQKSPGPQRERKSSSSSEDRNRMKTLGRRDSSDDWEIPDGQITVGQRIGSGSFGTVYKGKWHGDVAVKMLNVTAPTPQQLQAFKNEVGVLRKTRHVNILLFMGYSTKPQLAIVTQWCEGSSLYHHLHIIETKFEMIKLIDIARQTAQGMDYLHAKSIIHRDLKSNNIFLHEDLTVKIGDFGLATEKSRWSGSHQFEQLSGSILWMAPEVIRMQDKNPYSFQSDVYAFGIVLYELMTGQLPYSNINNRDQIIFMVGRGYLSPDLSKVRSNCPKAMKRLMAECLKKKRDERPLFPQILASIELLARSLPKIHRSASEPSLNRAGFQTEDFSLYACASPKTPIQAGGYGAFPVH
The experiment in a line: Z′-LYTE kinase assay, BRAF V600E (Invitrogen). The class given is biochemical. Conditions: Z′-LYTE method. The procedure:
as §1, §2, §3

Experiment [4] concerns the target T1, BRAF. Description: LanthaScreen kinase assay, BRAF. Particulars: ATP 1 μM. In kind it is biochemical. Here is the method:
(§4) The inhibitory activities of compounds against BRAF or BRAF V600E protein were measured using Invitrogne's LanthaScreen™ kinase assay which is based on fluorescein-labeled MAP2K1 as a substrate. The assay procedure is described as follows.
(§5) The scale utilized in Table 3 is as follows: ++++ less than 50 nM; +++ between 50 and 100 nM; ++ between 100 nM and 1 μM; and + greater than 1 μM.
(In TR-FRET formats the signal depends on donor and acceptor labels being close together.)

Experiment [5] deals with T2, BRAF V600E. The experiment in a line: LanthaScreen kinase assay, BRAF V600E. The class given is biochemical. Conditions: ATP 10 μM. Here is the method:
as §4, §5

Experiment [6] has as its system A375 (human melanoma cell, BRAF V600E Mutant). Description: Inhibition of cancer cell growth, MTT or MTS assay, A375. Particulars: A-375, 72 h, highest concentration 10 μM (Table 5). In kind it is cell-based. The procedure:
(§6) A375 (human melanoma cell, BRAF V600E Mutant), CHL-1 (human melanoma cell, BRAF wild type), SK-MEL-28 (human melanoma cell, BRAF V600E Mutant) and SK-MEL-31(human melanoma cell, Braf WT Mutant) were purchased from ATCC (American Type Culture Collection, Manassas, Va.). All cell lines were maintained in RPMI 1640 (Hyclone) or DMEM (Hyclone) supplemented with 10% fetal bovine serum (FBS, Hyclone), glutamine (2 mM, Hyclone), and antibiotics (penicillin 100 U/mL and streptomycin 50 μg/mL) at 37° C. in a humidified atmosphere of 5% CO2 in air.
(§7) To test IC50 of inhibition of individual compounds against each cell line, A375, SK-MEL-28and SK-MEL-31 cells were first plated in 96-well plates at densities of 3000 cells/well, and CHL-1 2500 cells/well. Cells were then incubated to allow cells to adhere and grow for 24 h. Cells were then treated with a series of concentrations of compounds for 72 h. The highest concentration of compounds was 10 μM for A375 and SK-MEL-28 cells and 100 μM for CHL-1 and SK-MEL-31 cells. Cells were then removed from the incubator and medium was removed by inverting and tapping the plates. 100 μL of MTT (0.5 mg/ml) or 10 μL or MTS was added to each well followed by an incubated at 37° C. for 4 h. Then MTT was removed and 200 μL of DMSO was added to each well, followed by reading the ODs at 570 nm after a 5 second shaking cycle in a 96-well spectrophotometer. For MTS method, MTS was not removed, and the incubated solutions were directly put in a 96-well spectrophotometer for the reading of the ODs at 492 nm.
(§8) IC50 was calculated by plotting the concentration of compound vs the percentage of inhibition in treated wells using GraphPad Prism 5. […] The scale utilized in Table 5 is as follows: +++ less than 500 nM; ++ between 500 nM and 1 μM; and + greater than 1 μM.

Experiment [7] relates to SK-MEL-28 (human melanoma cell, BRAF V600E Mutant). Description: Inhibition of cancer cell growth, MTT or MTS assay, SK-MEL-28. In kind it is cell-based. Particulars: 72 h, highest concentration 10 μM. The procedure:
as §6, §7, §8
For orientation: Formazan colour is commonly taken as a measure of viable cells.

The test system of experiment [8] is CHL-1 (human melanoma cell, BRAF wild type). The experiment in a line: Inhibition of cancer cell growth, MTT or MTS assay, CHL-1. Conditions: 72 h, highest concentration 100 μM. The class given is cell-based. The procedure: as §6, §7, §8
The test system of experiment [9] is SK-MEL-31 (human melanoma cell, Braf WT Mutant). Description: Inhibition of cancer cell growth, MTT or MTS assay, SK-MEL-31. The class given is cell-based. Conditions: 72 h, highest concentration 100 μM. Here is the method:
as §6, §7, §8

T1 sequence (P15056 whole entry): as the sequence (P15056 whole entry V600E) above, with E600V counted along it

For the compound `N.N.[Cl][Pt][Cl]` [Cisplatin], in experiment [1], the “Tumor Volume Post-treatment” value was 647 mm^3 and the “Tumor Volume Pre-treatment” value was determined as 136 mm^3. In addition, the “T/C (relative tumor growth rate, RTVT/RTVC)” value in [1] (*p < 0.05, **p < 0.01) is 44.4%*.

For the compound `CCCS(=O)(=O)Nc1cc(F)c(F)c(C(=O)c2ccc3nccnc3c2)c1F` [Compound C04, N-(2,4,5-trifluoro-3-(quinoxaline-6-carbonyl)phenyl)propane-1-sulfonamide], the inhibition at 1 µM in experiment [2] and in [3] was greater than 89% throughout. Moreover, the IC50 is 50 to 100 nM in experiment [4], less than 50 nM in experiment [5], less than 500 nM in [6] and less than 500 nM in experiment [7]. Also, in experiment [8], the “IC50 CHL-1” value is on record as “No inhibition”. For the same compound, the “IC50 SK-MEL-31” value in experiment [9] was “No inhibition”.

In the case of `CCCS(=O)(=O)Nc1ccc(F)c(C(=O)c2ccc3nccnc3c2)c1Cl` [Compound C06, N-(2-chloro-4-fluoro-3-(quinoxaline-6-carbonyl)phenyl)propane-1-sulfonamide], the figures for the inhibition at 1 µM in [2] and in experiment [3] were 70 to 89% and greater than 89%, respectively. Moreover, the IC50 in [4] is 100 to 1000 nM; in experiment [5], less than 50 nM; in experiment [6], less than 500 nM. Also, in experiment [8], the “IC50 CHL-1” value is “No inhibition”.

In the case of `CCCS(=O)(=O)Nc1cc(F)c(F)c(C(=O)c2ccc3ncc(N4CCOCC4)nc3c2)c1F` [Compound C09, N-(2,4,5-trifluoro-3-(3-morpholinoquinoxaline-6-carbonyl)phenyl)propane-1-sulfonamide], the inhibition at 1 µM in [2] and in experiment [3] was greater than 89% throughout. Further, the 50% inhibitory concentration (IC50) is 50 to 100 nM in experiment [4], less than 50 nM in experiment [5], less than 500 nM in [6] and less than 500 nM in experiment [7]. Besides, the “IC50 CHL-1” value in experiment [8] is recorded as “No inhibition”. In addition, in [9], the “IC50 SK-MEL-31” value is given as “No inhibition”.

For `CCCS(=O)(=O)Nc1cc(F)c(F)c(C(=O)c2ccc3ncc(-c4ccc(Cl)cc4)nc3c2)c1F` [Compound C12, N-(3-(3-(4-chlorophenyl)quinoxaline-6-carbonyl)-2,4,5-trifluorophenyl)propane-1-sulfonamide], the inhibition at 1 µM in [2] was 70 to 89%; in experiment [3], greater than 89%. For the same compound, the IC50 was less than 500 nM in [6] and 500 to 1000 nM in experiment [7]. The “IC50 CHL-1” value in [8] is “No inhibition”. The “IC50 SK-MEL-31” value in [9] is given as “No inhibition”.
